Where no end group is shown, it is not given here.
How the values were obtained:
skin of volunteers = test: Psychophysics: itch sensation after insertion of native or reconstituted cowhage spicules into skin; format: in vivo; conditions: human volunteers; for blocking of itch and other sensations evoked by mucunain-containing spicules: E64 added during reconstitution of spicules; for itch evoked by substance loaded into inactivated spicules: autoclaved spicules soaked in the substance and dried; for itch evoked by PAR4 peptide agonist incubated with inactivated spicules: spicules incubated with peptide at 10 mM
Description: Reconstitution of spicules—Native spicules were inactivated by autoclaving for 1 hour and reconstituted with native and recombinant mucunains in the presence or absence of cysteine protease inhibitor, E64. Typically, 50 mg of inactivated spicules were mixed with 0.4 ml of 28 μM mucunain in a 2 ml microfuge tube, vortexed, and dried in a Speed-vac for 2 hours at room temperature. These spicules were then considered as ‘reconstituted’ with the protease alone. Spicules prepared in a similar manner but with E64 added at twice the concentration of mucunain, are considered reconstituted with the protease and the inhibitor.
Psychophysics—These protocols were approved by the Yale University Human Investigation Committee. A row of 10 cowhage spicules were lightly pasted to the flattened end of a Weck-Cel surgical strip, spaced at 1 mm, and applied parallel to the surface of the skin at the mid-volar forearm. […] Every 30 sec, subjects rated the magnitude of each of three qualities of sensation: Itch, pricking/stinging, and burning using the Generalized Labeled Magnitude Scale (Bartoshuk et al. 2004) that employs appropriately placed intensity descriptors of “none”, “barely detectable”, “weak”, “moderate”, “strong”, “very strong” and, at the top of the scale, “the strongest sensation imaginable.” Voltages derived from each subject's movements of a computer mouse that controlled a cursor on a visual representation of this scale were converted to numbers between 0 and 100 and plotted for each quality at successive intervals of 30 s up to 20 min after the insertion of cowhage. Each of nine subjects received, in separate tests, five types of cowhage spicules: native cowhage spicules, heat-inactivated spicules that had been soaked in a solution of cowhage extract containing E64, or the same but without E64, and heat-inactivated spicules that had been previously soaked in a solution of recombinant mucunain containing E64, or the same but without E64. The subject and experimenter were blinded as to the type of spicule administered.
The sensory effects of mucunain was further analyzed. A method of introducing mucunain into the skin of volunteers that would mimic the approach associated with the spicules was developed. Such a method would decrease or eliminate the pain associated with using conventional needles as such nociception might interfere with the sensation of itch. Spicules are inactivated when autoclaved but appear to maintain their physical structure. Inactivated spicules were soaked in a solution containing native or recombinant mucunain and then dried. One gram of fresh spicules was stirred for one hour at 4° C. with 20 ml of 0.1 M potassium phosphate buffer (pH 4.8) and 0.9% NaCl and the liquid removed by filtration through cheesecloth. The spicules were teased from the cheesecloth and autoclaved under dry heat for 30 minutes. The mucuna extract was passed through molecular filters to remove components with molecular weights of less than 9 kD. 50 mg of the inactivated, dried spicules were then soaked in 0.05 ml of the filtered extract containing 0.07 mg of cysteine protease (as determined by non-interfering protein assay) with or without 3.5 micrograms of E-64. The spicules were subsequently dried in a Speed-Vac for 2 hours. These spicules were considered ‘reconstituted’ with one batch containing the cysteine protease and its inhibitor and another batch, the protease alone. An analogous approach was used to load spicules with papain or histamine.

mucunain = target: T1, mucunain (Mucuna pruriens, UniProt B2LSD2); test: Chromogenic substrate assay, inhibition of mucunain by E64; format: biochemical, M. pruriens; conditions: native mucunain 0.9 μM, recombinant mucunain 2.7 μM
T1 construct: made in house; host or cells: E. coli ER2566 (pTWIN1MUC1300) for recombinant mucunain; native mucunain extracted from M. pruriens spicules
T1 sequence (B2LSD2 99-430): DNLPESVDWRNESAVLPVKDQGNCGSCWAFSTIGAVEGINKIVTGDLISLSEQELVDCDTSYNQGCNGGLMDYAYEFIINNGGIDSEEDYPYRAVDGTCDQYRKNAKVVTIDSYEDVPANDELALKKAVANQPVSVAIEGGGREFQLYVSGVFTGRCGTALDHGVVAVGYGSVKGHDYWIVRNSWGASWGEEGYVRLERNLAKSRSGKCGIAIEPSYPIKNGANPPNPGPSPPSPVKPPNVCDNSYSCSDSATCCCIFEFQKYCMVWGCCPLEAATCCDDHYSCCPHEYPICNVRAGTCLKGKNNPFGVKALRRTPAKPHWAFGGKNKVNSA
From the text: Papain served as a control cysteine protease.

PAR4 = test: PAR activation by cytoplasmic calcium release, ratiometric Fura-2 imaging, PAR4 transfected HeLa cells; format: cell-based, human; conditions: for calcium influx in PAR4 transfected HeLa cells: Fura-2 340:380 ratiometric imaging
Description: PAR activation observed by cytoplasmic calcium release—The four human PAR cDNAs were obtained from commercial sources and cloned into the pcDNA3.1 (−) vector (Invitrogen). HeLa cells were transfected with 10 μg of vector cDNA using Lipofectamine 2000 (Invitrogen) and cultured for two days in 96-well glass bottom plates at 30,000 cells/well. Cells were loaded with Fura-2 as follows. The medium was aspirated and replaced with 100 μl of complete DMEM containing 2 μM Fura-2 (Invitrogen) and kept at room temperature in the dark for 1 hr. The medium was again aspirated and each well received 90 μl of HEPES buffered saline (20 mM HEPES, 115 mM NaCl, 5.4 mM KCl, 2 mM CaCl2, 0.8 mM MgCl2, 13.8 mM glucose, pH 7.4). Plates were observed using a Zeiss Axiovert 200M microscope equipped with a filter wheel for monitoring excitation at 340 and 380 nm. Axiovision software, version 4.6 was used to analyze ratiometric calcium imaging of the cells. Ten μl of protease was applied approximately 20 seconds after the start of excitation. Images were taken every 5 seconds, beginning at time zero, for 3 minutes. The software was used to analyze the 37 images taken during each 3-minute period.

| Molecule | itch evoked by substance loaded into inactivated spicules (skin of volunteers) | itch evoked by PAR4 peptide agonist incubated with inactivated spicules (skin of volunteers) | calcium influx in PAR4 transfected HeLa cells (PAR4) | other results |
| --- | --- | --- | --- | --- |
| CC(C)C[C@H](NC(=O)[C@H]1O[C@@H]1C(=O)O)C(=O)NCCCCNC(=N)N (relative stereo) [E64, 1-[N-[(L-3-trans-carboxyoxirane-2-carbonyl)-L-leucyl]amino]-4-guanidinobutane] | – | – | – | blocking of itch and other sensations evoked by mucunain-containing spicules (skin of volunteers): blocked all sensations; blocking of itch and other sensations evoked by mucunain-containing spicules (skin of volunteers; listed as E-64): effective in preventing itch; blocking of Z-FR-pNA cleavage by mucunain (mucunain): blocked; blocking of protease-induced PAR4 activation (PAR4; native mucunain, recombinant mucunain and papain in the presence of E64): blocked |
| NCCc1c[nH]cn1 [histamine] | produced itch | – | – | – |
| AYPGKF-NH2 | – | elicited itch | induced calcium influx | – |
| GYPGKF-NH2 [ID; No. 28] | – | elicited itch | – | – |
| bromelain | produced itch | – | induced calcium influx | – |
| ficin | – | – | induced calcium influx | – |
